Measurements from publication PMC10208593 (Journal of molecular structure, 2023).
Entries after “also recorded” stand apart in the source; their conditions may differ. Where two headings read alike, the source gives them in different places.

Key:
[1] = tested on: Huh7; test: SRB cytotoxicity assay, Huh7; type: cell-based; details: Homo sapiens
[2] = tested on: HCT116; test: SRB cytotoxicity assay, HCT116; type: cell-based; details: Homo sapiens, HCT-116, 72 h, read-out: IC50 (μM) ± S.D. HCT116
[3] = tested on: MCF-7; test: SRB cytotoxicity assay, MCF-7; type: cell-based; details: Homo sapiens, MCF7, 72 h, read-out: IC50 (μM) ± S.D. MCF-7
[4] = biological target: tubulin obtained from bovine brains (Bos taurus, UniProt P81947+Q6B856); test: Inhibition of [3H]colchicine binding to tubulin; details: for Colchicine binding % inhibition ± SD, 50 μM: 50 μM compound, tubulin 1 μM, [3H]colchicine 5 μM; for inhibition at 50 µM: read-out: Colchicine binding % inhibition ± SD, 50 μM
[5] = tested on: Mahlavu; test: SRB cytotoxicity assay, Mahlavu; type: cell-based; details: Homo sapiens, read-out: IC50 (μM) ± S.D. Mahlavu
[6] = tested on: six cancer cell lines; test: SRB assay, six cancer cell lines taken together; type: cell-based; details: Homo sapiens, read-out: IC50 range against the six cancer cell lines examined
[7] = tested on: Huh7, HepG2, Mahlavu and SNU475 cells; test: Detection of apoptosis by Hoechst 33258 staining; type: cell-based, human; details: 48 h, IC100 concentrations, all four HCC lines
[8] = tested on: HepG2; test: SRB cytotoxicity assay, HepG2; type: cell-based; details: Homo sapiens, HepG2, read-out: IC50 (μM) ± S.D. HepG2
[9] = tested on: Mahlavu; test: Flow cytometry cell cycle analysis, Mahlavu; type: cell-based, human; details: propidium iodide; for cell cycle phase arrest, Mahlavu, higher concentration: 72 h at 10 μM; for cell cycle phase arrest, Mahlavu: 72 h at IC50 concentration
[10] = tested on: SNU475; test: SRB cytotoxicity assay, SNU475; type: cell-based; details: Homo sapiens, SNU-475, read-out: IC50 (μM) ± S.D. SNU475
[11] = tested on: Huh7; test: Flow cytometry cell cycle analysis, Huh7; type: cell-based, human; details: propidium iodide; for cell cycle phase arrest, Huh7, higher concentration: 72 h at 10 μM; for cell cycle phase arrest, Huh7: 72 h at IC50 concentration
[12] = tested on: Mahlavu; test: Real-time cell monitoring; type: cell-based, human; details: RT-CES, increasing concentrations, 72 h, vs DMSO control
[13] = Huh-7, 72 h, read-out: IC50 (μM) ± S.D. Huh7
[14] = Huh-7, read-out: IC50 (μM) ± S.D. Huh7 (HCC cell lines)

tubulin obtained from bovine brains, sequence (Q6B856 whole entry): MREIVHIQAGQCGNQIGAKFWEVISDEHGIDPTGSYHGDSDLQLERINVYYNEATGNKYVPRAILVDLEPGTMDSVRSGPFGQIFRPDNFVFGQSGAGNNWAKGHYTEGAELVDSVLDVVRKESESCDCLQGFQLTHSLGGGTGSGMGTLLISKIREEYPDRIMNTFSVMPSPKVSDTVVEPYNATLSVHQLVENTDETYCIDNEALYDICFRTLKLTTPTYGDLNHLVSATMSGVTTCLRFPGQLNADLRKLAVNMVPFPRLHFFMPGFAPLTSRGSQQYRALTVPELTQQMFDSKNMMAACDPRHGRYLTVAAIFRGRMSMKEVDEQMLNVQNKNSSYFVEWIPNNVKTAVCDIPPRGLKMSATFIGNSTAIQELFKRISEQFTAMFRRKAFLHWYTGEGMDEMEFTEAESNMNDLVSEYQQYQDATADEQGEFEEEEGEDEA
tubulin obtained from bovine brains, sequence (P81947 whole entry): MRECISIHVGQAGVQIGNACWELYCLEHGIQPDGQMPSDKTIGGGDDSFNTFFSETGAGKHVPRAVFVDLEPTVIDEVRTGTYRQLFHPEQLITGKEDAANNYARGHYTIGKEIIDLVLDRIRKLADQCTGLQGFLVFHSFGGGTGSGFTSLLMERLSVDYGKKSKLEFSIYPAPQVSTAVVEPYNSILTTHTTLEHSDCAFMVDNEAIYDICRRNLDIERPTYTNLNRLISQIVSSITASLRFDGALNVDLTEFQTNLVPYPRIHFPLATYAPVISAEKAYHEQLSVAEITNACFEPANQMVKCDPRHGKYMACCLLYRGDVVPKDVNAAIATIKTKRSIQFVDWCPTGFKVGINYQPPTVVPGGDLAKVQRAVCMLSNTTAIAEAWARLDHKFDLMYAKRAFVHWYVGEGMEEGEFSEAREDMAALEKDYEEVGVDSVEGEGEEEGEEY

| SMILES | IC50 [1, 13] [µM] | IC50 [2] [µM] | IC50 [3] [µM] | also measured |
| --- | --- | --- | --- | --- |
| CSc1ccc(NC(=O)c2cc(-c3c[nH]c4ccccc34)n[nH]2)cc1 [Compound 12, 3-(1H-Indol-3-yl)-N-(4-(methylthio)phenyl)-1H-pyrazole-5-carboxamide] | 6.3 ± 1.6 | 9 ± 1.9 | 2 ± 0.2 |  |
| O=C(Nc1ccccc1)c1cc(-c2c[nH]c3ccccc23)n[nH]1 [Compound 14, 3-(1H-Indol-3-yl)-N-phenyl-1H-pyrazole-5-carboxamide] | 16.8 ± 3.8 | > 50 | 22.2 ± 1.8 |  |
| O=C(c1cc(-c2c[nH]c3ccccc23)n[nH]1)N1CCN(c2ccc(C(F)(F)F)cc2)CC1 [Compound 28, (3-(1H-Indol-3-yl)-1H-pyrazol-5-yl)(4-(4-(trifluoromethyl)phenyl)piperazin-1yl)methanone] | 16.2 ± 3.2 | 27.6 ± 2.4 | 16.1 ± 1.7 |  |
| O=C(Nc1ccc(Br)cc1)c1cc(-c2c[nH]c3ccccc23)n[nH]1 [Compound 23, N-(4-Bromophenyl)-3-(1H-indol-3-yl)-1H-pyrazole-5-carboxamide] | > 50 | > 50 | 39.3 ± 1 |  |
| O=C(NCc1ccccn1)c1cc(-c2c[nH]c3ccccc23)n[nH]1 [Compound 26, 3-(1H-Indol-3-yl)-N-(pyridin-2-ylmethyl)-1H-pyrazole-5-carboxamide] | 35.4 ± 1.8 | 34 ± 1.1 | > 50 |  |
| COc1ccc(NC(=O)c2cc(-c3c[nH]c4ccccc34)n[nH]2)cc1 [Compound 15, 3-(1H-Indol-3-yl)-N-(4-methoxyphenyl)-1H-pyrazole-5-carboxamide] | 8.6 ± 2.1 | 11.9 ± 1 | 5.5 ± 0.5 |  |
| COc1ccc(OC)c(NC(=O)c2cc(-c3c[nH]c4ccccc34)n[nH]2)c1 [Compound 18, N-(2,5-Dimethoxyphenyl)-3-(1H-indol-3-yl)-1H-pyrazole-5-carboxamide] | 0.6 ± 0.1 | 1.4 ± 0.5 | 3.6 ± 0.4 | IC50 [1, 14]: 0.6 ± 0.2 µM; Colchicine binding % inhibition ± SD, 50 μM [4]: Inhibition was observed; inhibition at 50 µM [4]: 23 ± 3%; IC50 [5]: 2.9 ± 0.8 µM; IC50 [6]: 0.6 to 3.6 µM; apoptotic nuclear morphology (Hoechst staining) [7]: visible nuclear blebs or deformed nuclei; also recorded: induced apoptotic cell death; IC50 [8]: 1.3 ± 0.09 µM; cell cycle phase arrest, Mahlavu, higher concentration [9]: cell cycle arrest in the G2/M phase; also recorded: cell cycle arrest at the G2/M phase; cell cycle phase arrest, Mahlavu [9]: arrest in the G2/M phase; IC50 [10]: 2.9 ± 1.13 µM; cell cycle phase arrest, Huh7, higher concentration [11]: cell cycle arrest in the G2/M phase; also recorded: cell cycle arrest at the G2/M phase; cell cycle phase arrest, Huh7 [11]: did not cause a significant change |
| O=C(c1cc(-c2c[nH]c3ccccc23)n[nH]1)N1CCCCC1 [Compound 19, (3-(1H-Indol-3-yl)-1H-pyrazol-5-yl)(piperidin-1-yl)methanone] | 19.1 ± 1.8 | 23 ± 3.5 | 21.7 ± 2 |  |
| O=C(NCc1cccnc1)c1cc(-c2c[nH]c3ccccc23)n[nH]1 [Compound 25, 3-(1H-Indol-3-yl)-N-(pyridin-3-ylmethyl)-1H-pyrazole-5-carboxamide] | 29.1 ± 1 | 26.8 ± 2.1 | 36.5 ± 4 |  |
| CC(C)(C)c1ccc(NC(=O)c2cc(-c3c[nH]c4ccccc34)n[nH]2)cc1 [Compound 11, N-(4-(tert-Butyl)phenyl)-3-(1H-indol-3-yl)-1H-pyrazole-5-carboxamide] | 0.6 ± 0.4 | 1.2 ± 0.5 | 1 ± 0.1 | IC50 [1, 14]: 0.6 ± 0.4 µM; inhibition at 50 µM [4]: 9.4 ± 2%; IC50 [5]: 3.4 ± 0.8 µM; apoptotic nuclear morphology (Hoechst staining) [7]: visible nuclear blebs or deformed nuclei; IC50 [8]: 2.7 ± 0.9 µM; cell cycle phase arrest, Mahlavu, higher concentration [9]: arrest in the S phase; cell cycle phase arrest, Mahlavu [9]: arrest in the S phase; IC50 [10]: 4.3 ± 0.9 µM; cell cycle phase arrest, Huh7, higher concentration [11]: arrest in the S phase; cell cycle phase arrest, Huh7 [11]: did not cause a significant change; real-time cell growth (cell index) inhibition, Mahlavu [12]: dose-dependent growth inhibition |
| O=C(c1cc(-c2c[nH]c3ccccc23)n[nH]1)N1CCN(Cc2ccc(C(F)(F)F)cc2)CC1 [Compound 29, (3-(1H-Indol-3-yl)-1H-pyrazol-5-yl)(4-(4-(trifluoromethyl)benzyl)piperazin-1-yl)methanone] | 1.7 ± 1.8 | 4.1 ± 2 | 3 ± 0.8 |  |
| COc1cc(CNC(=O)c2cc(-c3c[nH]c4ccccc34)n[nH]2)cc(OC)c1OC [Compound 13, 3-(1H-Indol-3-yl)-N-(3,4,5-trimethoxybenzyl)-1H-pyrazole-5-carboxamide] | 17.2 ± 2.1 | 31 ± 2.4 | 17.9 ± 1 |  |
| CCCCNC(=O)c1cc(-c2c[nH]c3ccccc23)n[nH]1 [Compound 21, N-Butyl-3-(1H-indol-3-yl)-1H-pyrazole-5-carboxamide] | > 50 | 23.1 ± 5.1 | 26.7 ± 0.5 |  |
| COc1ccc(NC(=O)c2cc(-c3c[nH]c4ccccc34)n[nH]2)cc1OC [Compound 17, N-(3,4-Dimethoxyphenyl)-3-(1H-indol-3-yl)-1H-pyrazole-5-carboxamide] | 2.8 ± 1.2 | 10.1 ± 0.7 | 1.7 ± 0.4 |  |
| O=C(NC1CCN(Cc2ccccc2)CC1)c1cc(-c2c[nH]c3ccccc23)n[nH]1 [Compound 27, N-(1-Benzylpiperidin-4-yl)-3-(1H-indol-3-yl)-1H-pyrazole-5-carboxamide] | 6.8 ± 0.7 | 8.9 ± 0.7 | 8.6 ± 0.2 |  |
| O=C(c1cc(-c2c[nH]c3ccccc23)n[nH]1)N1CCOCC1 [Compound 20, (3-(1H-Indol-3-yl)-1H-pyrazol-5-yl)(morpholino)methanone] | > 50 | > 50 | > 50 |  |
| COc1cc(NC(=O)c2cc(-c3c[nH]c4ccccc34)n[nH]2)cc(OC)c1 [Compound 16, N-(3,5-Dimethoxyphenyl)-3-(1H-indol-3-yl)-1H-pyrazole-5-carboxamide] | 4.5 ± 0.1 | 6.2 ± 1 | 2.6 ± 0.5 |  |
| O=C(Nc1ccc(Cl)cc1)c1cc(-c2c[nH]c3ccccc23)n[nH]1 [Compound 22, N-(4-Chlorophenyl)-3-(1H-indol-3-yl)-1H-pyrazole-5-carboxamide] | > 50 | > 50 | 29.8 ± 3.1 |  |
| O=C(NCc1ccncc1)c1cc(-c2c[nH]c3ccccc23)n[nH]1 [Compound 24, 3-(1H-Indol-3-yl)-N-(pyridin-4-ylmethyl)-1H-pyrazole-5-carboxamide] | 30.4 ± 1.4 | 33.2 ± 1 | 31.2 ± 2.6 |  |
| CNC(=O)c1cc(Oc2ccc(NC(=O)Nc3ccc(Cl)c(C(F)(F)F)c3)cc2)ccn1 [Sorafenib, sorafenib, reference compound] | 6.5 ± 0.7 | 12 ± 0.6 | 13.8 ± 1.2 | IC50 [1, 14]: 6.5 ± 0.7 µM; IC50 [5]: 8.3 ± 1 µM; IC50 [8]: 4.4 ± 0.8 µM; IC50 [10]: 9.6 ± 0.5 µM |
| COc1cc(NC(=O)c2cc(-c3c[nH]c4ccccc34)n[nH]2)cc(OC)c1OC [Compound 10, 3-(1H-Indol-3-yl)-N-(3,4,5-trimethoxyphenyl)-1H-pyrazole-5-carboxamide] | 1 ± 0.2 | 2.5 ± 0.3 | 2.1 ± 0.1 | IC50 [1, 14]: 1 ± 0.2 µM; Colchicine binding % inhibition ± SD, 50 μM [4]: Inhibition was observed; inhibition at 50 µM [4]: 26 ± 7%; IC50 [5]: 2.7 ± 0.4 µM; apoptotic nuclear morphology (Hoechst staining) [7]: visible nuclear blebs or deformed nuclei; IC50 [8]: 2.9 ± 0.1 µM; IC50 [10]: 4.1 ± 2.1 µM; cell cycle phase arrest, Huh7 [11]: arrest in the G0/G1 phase; real-time cell growth (cell index) inhibition, Mahlavu [12]: noticeable inhibition in cell growth in 6 μM concentration |
